Experimental data published in patent US8192962B2, “Processes for detecting toxic substances” (Daikin Industries, Ltd., priority 2001, dated 2012).

Tested on: Mitochondria-located protein genes
Assay: DNA chip mRNA expression in yeast, mitochondria-located protein genes (Table 2)
Type: cell-based, Saccharomyces cerevisiae S288C
Conditions: cells incubated two hours with the chemical substance
How it was run: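 Value is the scanned fluorescence intensity ratio of exposed versus chemical-free cells. Log-phase S288C yeast in YPD at 25° C. received one toxic substance for two hours, dosed to slow growth without killing; Cy3/Cy5-labeled cDNA from oligo-dT-purified mRNA was hybridized to a whole-genome chip at 65° C.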

Measured: The level of expressed mRNA in the presence of chemical substance/The level of expressed mRNA in the absence of chemical substance

O=[N+]([O-])c1cc[n+]([O-])c2ccccc12 [(5), 4-nitroquinolin-N-oxide]
1.5: yeast gene YBR122C | yeast gene YJL180C
2.0: yeast gene YDL067C
1.0: yeast gene YBL099W | yeast gene YBR282W | yeast gene YCR046C | yeast gene YGR174C
0.9: yeast gene YBL038W | yeast gene YDR178W | yeast gene YEL039C | yeast gene YGL191W | yeast gene YGR008C | yeast gene YGR028W | yeast gene YGR076C | yeast gene YGR082W | yeast gene YJL133W | yeast gene YJR077C
1.7: yeast gene YDL181W
0.7: yeast gene YBL030C | yeast gene YBR003W | yeast gene YDL198C | yeast gene YER178W | yeast gene YGR062C
0.8: yeast gene YBR185C | yeast gene YDR347W | yeast gene YGR244C
1.1: yeast gene YAL039C | yeast gene YBR091C | yeast gene YCL057W | yeast gene YDR231C | yeast gene YGL018C
0.5: yeast gene YJR045C
1.6: yeast gene YCR083W | yeast gene YJL166W
0.6: yeast gene YHR008C
1.2: yeast gene YBL022C | yeast gene YDR079W | yeast gene YDR529C
1.4: yeast gene YBR044C
1.9: yeast gene YDR377W | yeast gene YJL096W
1.3: yeast gene YBR221C | yeast gene YBR251W | yeast gene YDR258C | yeast gene YDR298C | yeast gene YEL024W | yeast gene YFL016C | yeast gene YGL187C | yeast gene YIL155C | yeast gene YJL102W
